How the values were obtained:
[1] = target: Receptor-interacting serine/threonine-protein kinase 2 (Homo sapiens, UniProt O43353); assay: Selectivity interaction (KinomeScan (DiscoverX)) EUB0000229b RIPK2; conditions: at 10 µM
[2] = target: Dual specificity testis-specific protein kinase 1 (Homo sapiens) (UniProt Q15569); assay: Selectivity interaction (KinomeScan (DiscoverX)) EUB0000666a TESK1; conditions: at 10 µM
[3] = target: High affinity nerve growth factor receptor (Homo sapiens, UniProt P04629); assay: Selectivity interaction (Millipore kinase profiler) EUB0000124b NTRK1; conditions: at 10 µM
[4] = target: T1, Dual specificity tyrosine-phosphorylation-regulated kinase 2 (Homo sapiens) (UniProt Q92630); assay: Selectivity interaction (ProQinase) EUB0000171b DYRK2
T1 sequence (whole entry): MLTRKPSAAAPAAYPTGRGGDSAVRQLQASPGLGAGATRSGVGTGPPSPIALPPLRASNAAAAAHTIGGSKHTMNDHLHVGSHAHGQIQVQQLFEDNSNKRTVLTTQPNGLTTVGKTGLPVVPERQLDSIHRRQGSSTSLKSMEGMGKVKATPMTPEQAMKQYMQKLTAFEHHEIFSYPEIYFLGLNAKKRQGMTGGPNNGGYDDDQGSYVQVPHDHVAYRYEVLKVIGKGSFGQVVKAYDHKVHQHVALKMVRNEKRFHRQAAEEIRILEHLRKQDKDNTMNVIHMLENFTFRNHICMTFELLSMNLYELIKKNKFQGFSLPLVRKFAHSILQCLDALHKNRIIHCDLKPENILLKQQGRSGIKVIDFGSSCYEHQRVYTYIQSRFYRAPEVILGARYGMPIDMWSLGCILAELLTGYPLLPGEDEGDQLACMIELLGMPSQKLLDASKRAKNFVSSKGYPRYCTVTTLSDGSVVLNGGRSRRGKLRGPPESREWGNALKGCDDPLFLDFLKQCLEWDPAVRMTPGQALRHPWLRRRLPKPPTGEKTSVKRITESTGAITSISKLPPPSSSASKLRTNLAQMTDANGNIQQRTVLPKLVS

[5] = target: T2, Serine/threonine-protein kinase D3 (Homo sapiens) (UniProt O94806); assay: Selectivity interaction (SelectScreen profiling (Invitrogen)) EUB0000607a PRKD3; conditions: at 2 µM
T2 sequence (whole entry): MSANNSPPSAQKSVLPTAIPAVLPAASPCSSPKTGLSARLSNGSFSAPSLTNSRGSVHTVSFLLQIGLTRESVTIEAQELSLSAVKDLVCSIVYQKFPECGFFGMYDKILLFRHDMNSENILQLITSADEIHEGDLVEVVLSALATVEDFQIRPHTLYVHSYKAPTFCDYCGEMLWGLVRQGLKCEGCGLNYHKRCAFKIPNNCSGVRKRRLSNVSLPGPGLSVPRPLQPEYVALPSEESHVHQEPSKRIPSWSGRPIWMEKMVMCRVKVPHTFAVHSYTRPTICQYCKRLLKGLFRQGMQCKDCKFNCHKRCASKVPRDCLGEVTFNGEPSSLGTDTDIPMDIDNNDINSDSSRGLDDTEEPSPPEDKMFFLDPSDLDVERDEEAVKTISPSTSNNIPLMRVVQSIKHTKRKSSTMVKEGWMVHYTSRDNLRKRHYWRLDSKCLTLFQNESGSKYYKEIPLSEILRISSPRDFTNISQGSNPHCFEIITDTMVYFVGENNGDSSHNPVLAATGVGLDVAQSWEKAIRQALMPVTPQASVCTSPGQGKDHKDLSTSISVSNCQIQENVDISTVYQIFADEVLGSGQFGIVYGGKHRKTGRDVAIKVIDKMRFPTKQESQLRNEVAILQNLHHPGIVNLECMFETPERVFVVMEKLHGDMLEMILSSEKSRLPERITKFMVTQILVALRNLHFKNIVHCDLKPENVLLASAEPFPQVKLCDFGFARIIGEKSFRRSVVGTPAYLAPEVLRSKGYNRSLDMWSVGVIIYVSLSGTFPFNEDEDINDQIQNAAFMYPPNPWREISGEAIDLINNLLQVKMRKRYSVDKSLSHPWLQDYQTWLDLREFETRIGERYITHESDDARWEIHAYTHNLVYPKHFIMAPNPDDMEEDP

[6] = target: Tyrosine-protein kinase JAK2 (Homo sapiens, UniProt O60674); assay: Selectivity interaction (KinomeScan (DiscoverX)) EUB0000618a JAK2; conditions: at 10 µM
[7] = target: T3, Ephrin type-B receptor 3 (Homo sapiens) (UniProt P54753); assay: Selectivity interaction (Kinase panel (Invitrogen)) EUB0000639a EPHB3; conditions: at 200 nM
T3 sequence (whole entry): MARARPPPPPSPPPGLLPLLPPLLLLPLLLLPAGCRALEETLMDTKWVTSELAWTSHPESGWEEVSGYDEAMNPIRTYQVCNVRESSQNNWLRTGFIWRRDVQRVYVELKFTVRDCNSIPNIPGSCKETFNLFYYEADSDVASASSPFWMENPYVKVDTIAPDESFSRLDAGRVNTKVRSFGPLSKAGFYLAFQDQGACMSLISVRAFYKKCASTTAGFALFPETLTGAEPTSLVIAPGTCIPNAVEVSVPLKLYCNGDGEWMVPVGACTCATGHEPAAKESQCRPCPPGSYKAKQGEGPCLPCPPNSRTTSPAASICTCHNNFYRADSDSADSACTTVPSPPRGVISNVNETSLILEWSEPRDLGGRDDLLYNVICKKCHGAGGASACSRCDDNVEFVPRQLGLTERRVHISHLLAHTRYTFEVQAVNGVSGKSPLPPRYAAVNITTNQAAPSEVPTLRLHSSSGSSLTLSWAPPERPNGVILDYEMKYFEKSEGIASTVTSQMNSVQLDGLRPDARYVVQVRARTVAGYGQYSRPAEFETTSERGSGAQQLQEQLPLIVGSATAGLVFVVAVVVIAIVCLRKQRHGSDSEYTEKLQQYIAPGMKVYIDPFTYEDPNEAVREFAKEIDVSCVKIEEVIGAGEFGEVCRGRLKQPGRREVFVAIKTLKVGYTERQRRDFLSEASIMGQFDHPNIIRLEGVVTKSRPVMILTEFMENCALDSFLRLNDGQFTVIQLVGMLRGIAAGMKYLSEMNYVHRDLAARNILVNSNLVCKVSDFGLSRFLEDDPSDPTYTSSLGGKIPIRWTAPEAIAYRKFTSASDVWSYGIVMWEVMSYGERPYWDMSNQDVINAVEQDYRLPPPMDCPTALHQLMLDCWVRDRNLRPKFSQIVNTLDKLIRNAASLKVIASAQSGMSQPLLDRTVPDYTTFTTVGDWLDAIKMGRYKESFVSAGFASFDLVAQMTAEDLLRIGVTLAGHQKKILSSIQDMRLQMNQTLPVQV

[8] = target: Cyclin-dependent kinase 5/CDK5 activator 1 (Homo sapiens) (UniProt Q00535+Q15078); assay: Selectivity interaction (Kinase panel (Invitrogen)) EUB0000639a CDK5; format: protein-complex assay; conditions: at 200 nM
[9] = target: Tyrosine-protein kinase Fer (Homo sapiens) (UniProt P16591); assay: Selectivity interaction (Ambit KINOMEscan and KiNATiv profiling in Jurkat cells) EUB0000090b FER; format: cell-based; conditions: at 1 µM
Tyrosine-protein kinase Fer (Homo sapiens), sequence (P16591 whole entry, looked up): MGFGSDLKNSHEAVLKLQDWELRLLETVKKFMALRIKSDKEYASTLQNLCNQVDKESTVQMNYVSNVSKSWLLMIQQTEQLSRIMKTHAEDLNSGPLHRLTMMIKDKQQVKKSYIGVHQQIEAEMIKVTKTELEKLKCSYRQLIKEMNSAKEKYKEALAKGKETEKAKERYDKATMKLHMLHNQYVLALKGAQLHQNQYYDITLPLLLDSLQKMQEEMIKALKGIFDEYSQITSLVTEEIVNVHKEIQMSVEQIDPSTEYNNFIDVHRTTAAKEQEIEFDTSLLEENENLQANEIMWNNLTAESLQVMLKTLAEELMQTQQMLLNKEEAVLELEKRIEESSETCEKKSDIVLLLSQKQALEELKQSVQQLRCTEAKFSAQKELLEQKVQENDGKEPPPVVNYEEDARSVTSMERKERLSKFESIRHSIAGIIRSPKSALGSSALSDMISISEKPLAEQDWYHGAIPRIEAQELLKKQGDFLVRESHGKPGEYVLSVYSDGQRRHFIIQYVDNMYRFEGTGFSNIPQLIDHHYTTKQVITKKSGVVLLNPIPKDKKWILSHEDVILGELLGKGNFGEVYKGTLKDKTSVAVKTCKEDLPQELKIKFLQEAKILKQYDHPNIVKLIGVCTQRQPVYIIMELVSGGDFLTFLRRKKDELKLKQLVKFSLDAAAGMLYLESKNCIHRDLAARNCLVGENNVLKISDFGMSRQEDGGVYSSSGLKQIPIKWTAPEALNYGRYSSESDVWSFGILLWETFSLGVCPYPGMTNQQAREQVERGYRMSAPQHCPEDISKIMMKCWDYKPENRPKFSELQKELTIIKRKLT

Cyclin-dependent kinase 5/CDK5 activator 1 (Homo sapiens), sequence (Q00535 whole entry): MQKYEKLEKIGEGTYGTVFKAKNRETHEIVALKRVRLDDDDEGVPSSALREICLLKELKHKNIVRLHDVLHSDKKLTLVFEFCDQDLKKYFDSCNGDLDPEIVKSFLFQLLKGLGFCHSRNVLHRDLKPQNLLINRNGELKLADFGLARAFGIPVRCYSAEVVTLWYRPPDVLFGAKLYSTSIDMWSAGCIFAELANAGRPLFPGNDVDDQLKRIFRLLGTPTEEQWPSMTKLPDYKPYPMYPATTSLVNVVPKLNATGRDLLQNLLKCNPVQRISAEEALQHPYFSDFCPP
Cyclin-dependent kinase 5/CDK5 activator 1 (Homo sapiens), sequence (Q15078 99-307 partner limits assumed): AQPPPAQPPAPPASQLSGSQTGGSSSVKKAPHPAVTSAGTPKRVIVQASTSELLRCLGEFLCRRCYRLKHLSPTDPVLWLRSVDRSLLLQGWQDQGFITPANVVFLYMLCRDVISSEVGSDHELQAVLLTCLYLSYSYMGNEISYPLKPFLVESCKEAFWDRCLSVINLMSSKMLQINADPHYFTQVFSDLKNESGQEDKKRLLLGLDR
Receptor-interacting serine/threonine-protein kinase 2, sequence (O43353 whole entry): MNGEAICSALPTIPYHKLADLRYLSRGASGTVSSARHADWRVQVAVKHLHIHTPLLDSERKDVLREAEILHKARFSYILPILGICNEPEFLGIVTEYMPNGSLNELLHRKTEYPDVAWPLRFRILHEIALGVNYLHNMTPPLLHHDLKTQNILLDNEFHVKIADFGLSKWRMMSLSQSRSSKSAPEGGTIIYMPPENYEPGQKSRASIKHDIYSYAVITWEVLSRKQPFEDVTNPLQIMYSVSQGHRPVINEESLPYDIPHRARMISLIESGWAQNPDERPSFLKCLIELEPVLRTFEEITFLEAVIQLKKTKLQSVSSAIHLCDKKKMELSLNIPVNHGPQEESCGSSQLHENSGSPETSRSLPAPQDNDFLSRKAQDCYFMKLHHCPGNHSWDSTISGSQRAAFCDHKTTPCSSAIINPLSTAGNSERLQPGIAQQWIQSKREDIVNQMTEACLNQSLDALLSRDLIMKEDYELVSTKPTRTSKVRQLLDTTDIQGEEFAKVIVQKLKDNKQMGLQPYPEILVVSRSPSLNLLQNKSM
High affinity nerve growth factor receptor, sequence (P04629 33-796 limits assumed): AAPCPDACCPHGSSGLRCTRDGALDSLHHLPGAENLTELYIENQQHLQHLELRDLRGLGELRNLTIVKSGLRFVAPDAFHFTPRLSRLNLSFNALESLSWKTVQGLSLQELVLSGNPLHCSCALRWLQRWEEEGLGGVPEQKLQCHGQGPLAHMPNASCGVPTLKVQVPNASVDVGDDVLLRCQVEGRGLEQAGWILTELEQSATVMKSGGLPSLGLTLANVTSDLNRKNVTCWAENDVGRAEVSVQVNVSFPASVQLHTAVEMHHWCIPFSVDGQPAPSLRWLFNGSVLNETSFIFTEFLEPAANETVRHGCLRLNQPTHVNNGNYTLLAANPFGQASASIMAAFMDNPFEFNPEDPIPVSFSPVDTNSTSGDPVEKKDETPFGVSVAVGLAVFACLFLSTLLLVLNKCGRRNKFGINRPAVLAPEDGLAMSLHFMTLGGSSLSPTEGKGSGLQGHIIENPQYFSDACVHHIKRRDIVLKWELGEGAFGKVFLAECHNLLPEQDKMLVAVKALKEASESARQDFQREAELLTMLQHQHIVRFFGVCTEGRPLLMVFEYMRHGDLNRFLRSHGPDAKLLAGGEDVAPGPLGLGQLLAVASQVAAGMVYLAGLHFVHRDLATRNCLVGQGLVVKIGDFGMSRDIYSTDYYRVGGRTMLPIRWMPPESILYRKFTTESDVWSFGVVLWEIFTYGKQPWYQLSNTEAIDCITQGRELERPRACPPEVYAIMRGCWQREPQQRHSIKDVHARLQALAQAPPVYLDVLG
Dual specificity testis-specific protein kinase 1 (Homo sapiens), sequence (Q15569 whole entry, looked up): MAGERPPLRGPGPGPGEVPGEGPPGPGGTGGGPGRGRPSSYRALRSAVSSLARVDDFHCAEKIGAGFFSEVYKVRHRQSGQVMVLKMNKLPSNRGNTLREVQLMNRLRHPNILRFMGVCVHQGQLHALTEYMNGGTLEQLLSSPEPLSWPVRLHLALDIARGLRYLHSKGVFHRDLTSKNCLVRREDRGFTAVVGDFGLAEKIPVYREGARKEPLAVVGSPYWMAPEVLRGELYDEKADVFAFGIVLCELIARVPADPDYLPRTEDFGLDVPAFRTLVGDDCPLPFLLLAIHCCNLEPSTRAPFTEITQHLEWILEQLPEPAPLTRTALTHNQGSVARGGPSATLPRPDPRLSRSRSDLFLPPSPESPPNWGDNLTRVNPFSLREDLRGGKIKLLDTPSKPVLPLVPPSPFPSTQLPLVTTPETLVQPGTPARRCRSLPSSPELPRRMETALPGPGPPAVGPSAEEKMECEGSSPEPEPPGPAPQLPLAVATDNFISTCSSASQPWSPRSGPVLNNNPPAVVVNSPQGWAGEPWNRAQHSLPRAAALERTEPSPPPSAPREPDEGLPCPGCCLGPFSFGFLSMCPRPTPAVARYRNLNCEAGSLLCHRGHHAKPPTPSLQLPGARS
Tyrosine-protein kinase JAK2, sequence (O60674 whole entry): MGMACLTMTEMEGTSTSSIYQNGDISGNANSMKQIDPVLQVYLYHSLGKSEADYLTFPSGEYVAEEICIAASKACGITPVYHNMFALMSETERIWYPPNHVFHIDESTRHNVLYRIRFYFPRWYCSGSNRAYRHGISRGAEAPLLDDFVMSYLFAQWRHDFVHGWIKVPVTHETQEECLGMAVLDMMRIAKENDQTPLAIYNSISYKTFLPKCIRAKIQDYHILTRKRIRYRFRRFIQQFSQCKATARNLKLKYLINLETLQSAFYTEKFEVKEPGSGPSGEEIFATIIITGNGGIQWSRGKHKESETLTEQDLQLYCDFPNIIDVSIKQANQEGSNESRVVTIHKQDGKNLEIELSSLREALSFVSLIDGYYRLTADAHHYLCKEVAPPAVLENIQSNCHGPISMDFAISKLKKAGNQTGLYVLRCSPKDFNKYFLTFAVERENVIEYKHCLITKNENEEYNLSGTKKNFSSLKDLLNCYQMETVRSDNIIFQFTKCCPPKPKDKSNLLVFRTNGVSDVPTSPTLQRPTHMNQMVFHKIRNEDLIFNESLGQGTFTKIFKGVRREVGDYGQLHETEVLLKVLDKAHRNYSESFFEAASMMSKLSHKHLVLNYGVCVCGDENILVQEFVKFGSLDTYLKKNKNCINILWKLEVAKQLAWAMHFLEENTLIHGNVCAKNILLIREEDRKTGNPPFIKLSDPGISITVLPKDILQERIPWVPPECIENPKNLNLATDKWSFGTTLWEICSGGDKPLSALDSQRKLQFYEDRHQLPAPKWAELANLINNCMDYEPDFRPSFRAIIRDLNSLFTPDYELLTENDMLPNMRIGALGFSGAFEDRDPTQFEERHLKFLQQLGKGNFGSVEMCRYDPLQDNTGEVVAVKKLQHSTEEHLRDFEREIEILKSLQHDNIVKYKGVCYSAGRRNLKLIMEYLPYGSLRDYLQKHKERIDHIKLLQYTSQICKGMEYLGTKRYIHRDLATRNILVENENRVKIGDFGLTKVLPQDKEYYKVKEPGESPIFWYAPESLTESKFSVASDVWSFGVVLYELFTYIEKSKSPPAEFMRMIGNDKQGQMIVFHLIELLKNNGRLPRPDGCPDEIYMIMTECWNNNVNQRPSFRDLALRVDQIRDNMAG

Compound `COc1cc(N(C)c2ccnc3ccc(C(F)(F)F)cc23)cc(OC)c1OC` has a % binding [1] of 58%.

`O=C(NOC[C@H](O)CO)c1ccc(F)c(F)c1Nc1ccc(I)cc1F` gave a % of control [2] of 98%.

For `CC(=O)Nc1cccc(-n2c(=O)n(C3CC3)c(=O)c3c(Nc4ccc(I)cc4F)n(C)c(=O)c(C)c32)c1`, the % of control [3] was 59%.

`C=CC(=O)Nc1cccc(C(=O)Nc2ccc(Nc3cc(-c4[nH]c(SC)nc4C)ccn3)cc2)c1` was tested, and the % of control ([4]; at 1 µM) was 72% and the % of control ([4]; at 5 µM) was 30%.

`CNC(=O)Nc1ccc(-c2nc(N3CC4CCC(C3)O4)c3cnn(C4CCC5(CC4)OCCO5)c3n2)cc1` showed a % of inhibition [5] of 4%.

`O[C@H]1CC[C@H](Nc2ncc3nc(Nc4c(F)cc(F)cc4F)n([C@H]4CCOC4)c3n2)CC1` showed a % of control [6] of 97%.

`CC[C@@H]1[C@H](F)C(=O)N[C@@H]1COc1nccc2cc(C(N)=O)c(OC)cc12` [ZIMLOVISERTIB] was tested, and the % of inhibition [7] was 4.83% and the % of inhibition [8] was 2.19%.

`CN(C)C/C=C/C(=O)Nc1ccc(C(=O)N2CCCC(Nc3ncc(Cl)c(-c4c[nH]c5ccccc45)n3)C2)cc1` (stereo not given) gave a % of control [9] of 82%.

Source: ChEMBL document CHEMBL5465560, “Selectivity Literature for EUbOPEN Chemogenomic Library” (2024)
